Results from patent US4057636A, “Antihypertensive pyridylguanidine compounds” (Leo Pharmaceutical Products Ltd. A/S, priority 1974, dated 1977).

What was measured:
[1] = tested on: conscious spontaneously hypertensive rats; test: Antihypertensive activity in conscious spontaneously hypertensive rats; type: in vivo, rat (spontaneously hypertensive Okamoto strain)
Protocol: Male albino rats, spontaneously hypertensive Okamoto strain, fasting 16 hours before the experiments were used. The conscious animals were restrained in a plastic cage and a cuff was secured around the tail. The cuff was connected with an electronic blood pressure recorder. The systolic blood pressure and the heart rate were measured before and 2, 4, 6, and 24 hours after the administration of compounds. The compounds were suspended or dissolved in carboxymethylcellulose 0.5%. […] There are also included, for comparison, the results obtained under the same experimental conditions with some known antihypertensive drugs, and the approximate oral LD50 in mice are stated.

in vivo = details: mouse
[2] = tested on: conscious normotensive dogs; test: Hypotensive activity in conscious normotensive dogs; type: in vivo, dog (mongrel); details: 0.1 mg/kg oral
Protocol: Hypotensive activity in conscious normotensive dogs
Mongrel dogs of both sexes, fasting 16 hours before the experiment were used. […] The compounds were orally administered in gelatine capsules.

CCC(CC)(CC)NC(=NC#N)Nc1cccnc1 [P 1068, N"-cyano-N-(1,1-diethylpropyl)-N'-3-pyridylguanidine]
BP ([1]; 0.5 mg/kg, 2 hours): 131 mm Hg | HR ([1]; 0.5 mg/kg, 2 hours): 473 beats/minute | BP ([1]; 0.5 mg/kg, 4 hours): 146 mm Hg | HR ([1]; 0.5 mg/kg, 4 hours): 437 beats/minute | BP ([1]; 0.5 mg/kg, 24 hours): 180 mm Hg | HR ([1]; 0.5 mg/kg, 24 hours): 383 beats/minute | LD50 (in vivo; po, p.o. (mice), approximate): > 1000 mg/kg

CCC(C)(C)NC(=NC#N)Nc1cccnc1 [P 1075, N"-cyano-N-tert-pentyl-N'-3-pyridylguanidine]
BP ([1]; 0.05 mg/kg, 2 hours): 105 mm Hg | HR ([1]; 0.05 mg/kg, 2 hours): 450 beats/minute | BP ([1]; 0.05 mg/kg, 4 hours): 102 mm Hg | HR ([1]; 0.05 mg/kg, 4 hours): 432 beats/minute | BP ([1]; 0.05 mg/kg, 24 hours): 164 mm Hg | HR ([1]; 0.05 mg/kg, 24 hours): 348 beats/minute | LD50 (in vivo; po, p.o. (mice), approximate): 1000 mg/kg | BP ([2]; Dog I, 1 hour): 72 mm Hg | HR ([2]; Dog I, 1 hour): 160 beats/minute | BP ([2]; Dog I, 2 hours): 75 mm Hg | HR ([2]; Dog I, 2 hours): 180 beats/minute | BP ([2]; Dog I, 3 hours): 85 mm Hg | HR ([2]; Dog I, 3 hours): 142 beats/minute | BP ([2]; Dog I, 4 hours): 95 mm Hg | HR ([2]; Dog I, 4 hours): 135 beats/minute | BP ([2]; Dog II, 1 hour): 82 mm Hg | HR ([2]; Dog II, 1 hour): 175 beats/minute | BP ([2]; Dog II, 2 hours): 74 mm Hg | HR ([2]; Dog II, 2 hours): 185 beats/minute | BP ([2]; Dog II, 3 hours): 92 mm Hg | HR ([2]; Dog II, 3 hours): 163 beats/minute | BP ([2]; Dog II, 4 hours): 115 mm Hg | HR ([2]; Dog II, 4 hours): 140 beats/minute | BP ([2]; Dog III, 1 hour): 95 mm Hg | HR ([2]; Dog III, 1 hour): 185 beats/minute | BP ([2]; Dog III, 2 hours): 90 mm Hg | HR ([2]; Dog III, 2 hours): 175 beats/minute | BP ([2]; Dog III, 3 hours): 104 mm Hg | HR ([2]; Dog III, 3 hours): 149 beats/minute | BP ([2]; Dog III, 4 hours): 110 mm Hg | HR ([2]; Dog III, 4 hours): 140 beats/minute

CCCC(C)(C)NC(=NC#N)Nc1cccnc1 [P 1067, N"-cyano-N-(1,1-dimethylbutyl)-N'-3-pyridylcuanidine]
BP ([1]; 0.5 mg/kg, 2 hours): 158 mm Hg | HR ([1]; 0.5 mg/kg, 2 hours): 440 beats/minute | BP ([1]; 0.5 mg/kg, 4 hours): 168 mm Hg | HR ([1]; 0.5 mg/kg, 4 hours): 413 beats/minute | BP ([1]; 0.5 mg/kg, 24 hours): 176 mm Hg | HR ([1]; 0.5 mg/kg, 24 hours): 408 beats/minute | LD50 (in vivo; po): > 1000 mg/kg

CCC(C)(CC)NC(=NC#N)Nc1cccnc1 [P 1066, N"-cyano-N-(1-ethyl-1-methylpropyl)-N'-3-pyridylguanidine]
BP ([1]; 0.05 mg/kg, 2 hours): 155 mm Hg | HR ([1]; 0.05 mg/kg, 2 hours): 462 beats/minute | BP ([1]; 0.05 mg/kg, 4 hours): 170 mm Hg | HR ([1]; 0.05 mg/kg, 4 hours): 417 beats/minute | BP ([1]; 0.05 mg/kg, 24 hours): 178 mm Hg | HR ([1]; 0.05 mg/kg, 24 hours): 413 beats/minute | BP ([1]; 0.5 mg/kg, 2 hours): 146 mm Hg | HR ([1]; 0.5 mg/kg, 2 hours): 437 beats/minute | BP ([1]; 0.5 mg/kg, 4 hours): 143 mm Hg | HR ([1]; 0.5 mg/kg, 4 hours): 413 beats/minute | BP ([1]; 0.5 mg/kg, 24 hours): 181 mm Hg | HR ([1]; 0.5 mg/kg, 24 hours): 413 beats/minute | BP ([1]; 2.5 mg/kg, 2 hours): 113 mm Hg | HR ([1]; 2.5 mg/kg, 2 hours): 386 beats/minute | BP ([1]; 2.5 mg/kg, 4 hours): 100 mm Hg | BP ([1]; 2.5 mg/kg, 6 hours): 114 mm Hg | HR ([1]; 2.5 mg/kg, 6 hours): 375 beats/minute | BP ([1]; 2.5 mg/kg, 24 hours): 152 mm Hg | HR ([1]; 2.5 mg/kg, 24 hours): 335 beats/minute | BP ([1]; 10.0 mg/kg, 2 hours): < 100 mm Hg | BP ([1]; 10.0 mg/kg, 4 hours): < 100 mm Hg | BP ([1]; 10.0 mg/kg, 6 hours): < 100 mm Hg | BP ([1]; 10.0 mg/kg, 24 hours): 126 mm Hg | HR ([1]; 10.0 mg/kg, 24 hours): 336 beats/minute | LD50 (in vivo; po, p.o. (mice), approximate): > 1000 mg/kg

NNc1nncc2ccccc12 [Hydralazine, reference compound]
BP ([1]; 2.0 mg/kg, 2 hours): 162 mm Hg | HR ([1]; 2.0 mg/kg, 2 hours): 425 beats/minute | BP ([1]; 2.0 mg/kg, 4 hours): 163 mm Hg | HR ([1]; 2.0 mg/kg, 4 hours): 413 beats/minute | BP ([1]; 2.0 mg/kg, 24 hours): 174 mm Hg | HR ([1]; 2.0 mg/kg, 24 hours): 379 beats/minute | BP ([1]; 5.0 mg/kg, 2 hours): 150 mm Hg | HR ([1]; 5.0 mg/kg, 2 hours): 405 beats/minute | BP ([1]; 5.0 mg/kg, 4 hours): 152 mm Hg | HR ([1]; 5.0 mg/kg, 4 hours): 410 beats/minute | BP ([1]; 5.0 mg/kg, 24 hours): 170 mm Hg | HR ([1]; 5.0 mg/kg, 24 hours): 380 beats/minute | LD50 (in vivo; mice, oral, printed with (114-130)): 122 mg/kg

N=c1nc(N2CCCCC2)cc(N)n1O [Minoxidil, 6-Amino-1,2-dihydro-1-hydroxy-2-imino-4-piperid-1-ylpyrimidine, reference compound]
BP ([1]; 0.5 mg/kg, 2 hours): 161 mm Hg | HR ([1]; 0.5 mg/kg, 2 hours): 409 beats/minute | BP ([1]; 0.5 mg/kg, 4 hours): 153 mm Hg | HR ([1]; 0.5 mg/kg, 4 hours): 411 beats/minute | BP ([1]; 0.5 mg/kg, 24 hours): 167 mm Hg | HR ([1]; 0.5 mg/kg, 24 hours): 400 beats/minute | BP ([1]; 1.0 mg/kg, 2 hours): 158 mm Hg | HR ([1]; 1.0 mg/kg, 2 hours): 431 beats/minute | BP ([1]; 1.0 mg/kg, 4 hours): 146 mm Hg | HR ([1]; 1.0 mg/kg, 4 hours): 424 beats/minute | BP ([1]; 1.0 mg/kg, 24 hours): 169 mm Hg | HR ([1]; 1.0 mg/kg, 24 hours): 407 beats/minute
